Data published in US12473304B2, “Heterocyclic PAD4 inhibitors” (BRISTOL-MYERS SQUIBB COMPANY, priority 2020, dated 2025).

Target: human PAD4 (hPAD4) (Homo sapiens (Human), UniProt Q9UM07)
Experiment: RFMS Human PAD4 Functional Assay 1
Type: biochemical
Conditions: RFMS assay 1; 5 nM hPAD4, 250 μM BAEE substrate, 50 μM calcium, 37° C.
In short: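 Recombinant hPAD4 (5 nM) was preincubated with compound (top 50 μM, 0.5% DMSO) for 30 min at 37 °C, then reacted with 250 μM BAEE for 90 min at 37 °C in pH 7.5 HEPES buffer with 50 μM calcium and 5 μM TPEN. Product was derivatized with phenyl glyoxal and quantified by RapidFire MS.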

Sequence of human PAD4 (hPAD4) (Q9UM07 whole entry): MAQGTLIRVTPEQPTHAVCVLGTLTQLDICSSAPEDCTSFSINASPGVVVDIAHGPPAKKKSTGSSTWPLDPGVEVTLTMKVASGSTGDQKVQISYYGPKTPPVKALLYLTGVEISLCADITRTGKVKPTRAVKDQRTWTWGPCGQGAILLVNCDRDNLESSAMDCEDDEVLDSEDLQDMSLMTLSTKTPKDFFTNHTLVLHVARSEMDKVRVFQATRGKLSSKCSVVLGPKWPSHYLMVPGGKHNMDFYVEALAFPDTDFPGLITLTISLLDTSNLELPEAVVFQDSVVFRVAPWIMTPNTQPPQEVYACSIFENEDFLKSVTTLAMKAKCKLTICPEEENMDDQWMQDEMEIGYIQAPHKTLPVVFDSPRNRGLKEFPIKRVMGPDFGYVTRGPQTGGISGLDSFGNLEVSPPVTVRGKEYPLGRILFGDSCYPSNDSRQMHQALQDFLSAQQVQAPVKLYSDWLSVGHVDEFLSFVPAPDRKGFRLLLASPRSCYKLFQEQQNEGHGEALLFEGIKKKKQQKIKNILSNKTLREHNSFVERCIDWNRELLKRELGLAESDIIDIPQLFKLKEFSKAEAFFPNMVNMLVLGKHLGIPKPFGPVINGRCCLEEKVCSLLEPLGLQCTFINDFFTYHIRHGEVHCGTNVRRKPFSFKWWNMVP

Structure (SMILES) | IC50 [µM]
Cc1c(-c2cc3cccc(C4CCN(C(=O)[C@H]5CC[C@H](O)CC5)CC4)c3n2CC2CC2)nn2cc(C(=O)N3CCC[C@@H](N)C3)ccc12 [Example 443, ((R)-3-aminopiperidin-1-yl)(2-(1-(cyclopropylmethyl)-7-(1-((1r,4r)-4-hydroxycyclohexane-1-carbonyl)piperidin-4-yl)-1H-indol-2-yl)-3-methylpyrazolo[1,5-a]pyridin-6-yl)methanone] | 0.13
Cc1c(-c2cc3cccc(C4CCN(C(=O)[C@H]5CC[C@@H](O)CC5)CC4)c3n2CC2CC2)nn2cc(C(=O)N3C[C@H](N)C[C@@H](F)C3)ccc12 [Example 444, ((3R,5R)-3-amino-5-fluoropiperidin-1-yl)(2-(1-(cyclopropylmethyl)-7-(1-((1s,4s)-4-hydroxycyclohexane-1-carbonyl)piperidin-4-yl)-1H-indol-2-yl)-3-methylpyrazolo[1,5-a]pyridin-6-yl)methanone] | 0.01
Cc1c(-c2cc3cccc(C4CCN(C(=O)CC(C)C)CC4)c3n2CC2CC2)nn2cc(C(=O)N3C[C@H](N)C[C@@H](F)C3)ccc12 [Example 445, 1-(4-(2-(6-((3R,5R)-3-amino-5-fluoropiperidine-1-carbonyl)-3-methylpyrazolo[1,5-a]pyridin-2-yl)-1-(cyclopropylmethyl)-1H-indol-7-yl)piperidin-1-yl)-3-methylbutan-1-one] | 0.16
Cc1c(-c2cc3cccc(C4CCN(C(=O)CC(C)C)CC4)c3n2CC2CC2)nn2cc(C(=O)N3CCC[C@@H](N)C3)ccc12 [Example 446, (R)-1-(4-(2-(6-(3-aminopiperidine-1-carbonyl)-3-methylpyrazolo[1,5-a]pyridin-2-yl)-1-(cyclopropylmethyl)-1H-indol-7-yl)piperidin-1-yl)-3-methylbutan-1-one] | 0.13
Cc1c(-c2cc3cccc(C4CCN(C(=O)[C@H]5CCC[C@@H](O)C5)CC4)c3n2CC2CC2)nn2cc(C(=O)N3CCC[C@@H](N)C3)ccc12 [Example 447, ((R)-3-aminopiperidin-1-yl)(2-(1-(cyclopropylmethyl)-7-(1-((1S,3R)-3-hydroxycyclohexane-1-carbonyl)piperidin-4-yl)-1H-indol-2-yl)-3-methylpyrazolo[1,5-a]pyridin-6-yl)methanone] | 0.17
Cc1c(-c2cc3cccc(C4CCN(C(=O)[C@H]5CCC[C@@H](O)C5)CC4)c3n2CC2CC2)nn2cc(C(=O)N3C[C@H](N)C[C@@H](F)C3)ccc12 [Example 448, ((3R,5R)-3-amino-5-fluoropiperidin-1-yl)(2-(1-(cyclopropylmethyl)-7-(1-((1S,3R)-3-hydroxycyclohexane-1-carbonyl)piperidin-4-yl)-1H-indol-2-yl)-3-methylpyrazolo[1,5-a]pyridin-6-yl)methanone] | 0.07
Cc1c(-c2cc3cccc(C4CCN(C(=O)[C@@H]5CCC[C@H](O)C5)CC4)c3n2CC2CC2)nn2cc(C(=O)N3C[C@H](N)C[C@@H](F)C3)ccc12 [Example 449, ((3R,5R)-3-amino-5-fluoropiperidin-1-yl)(2-(1-(cyclopropylmethyl)-7-(1-((1R,3S)-3-hydroxycyclohexane-1-carbonyl)piperidin-4-yl)-1H-indol-2-yl)-3-methylpyrazolo[1,5-a]pyridin-6-yl)methanone] | 0.05
Cc1c(-c2cc3cccc(C4CCN(C(=O)[C@H]5CC[C@@H](O)CC5)CC4)c3n2CC2CC2)nn2cc(C(=O)N3CCC[C@@H](N)C3)ccc12 [Example 450, ((R)-3-aminopiperidin-1-yl)(2-(1-(cyclopropylmethyl)-7-(1-((2s,4s)-4-hydroxycyclohexane-1-carbonyl)piperidin-4-yl)-1H-indol-2-yl)-3-methylpyrazolo[1,5-a]pyridin-6-yl)methanone] | 0.05
Cc1c(-c2cc3cccc(C4CCN(C(=O)[C@H]5CC[C@H](O)CC5)CC4)c3n2CC2CC2)nn2cc(C(=O)N3C[C@H](N)C[C@@H](F)C3)ccc12 [Example 451, ((3R,5R)-3-amino-5-fluoropiperidin-1-yl)(2-(1-(cyclopropylmethyl)-7-(1-((1r,4r)-4-hydroxycyclohexane-1-carbonyl)piperidin-4-yl)-1H-indol-2-yl)-3-methylpyrazolo[1,5-a]pyridin-6-yl)methanone] | 0.01
CC(=O)N1CCC(c2cccc3cc(-c4nn5cc(C(=O)N6C[C@H](N)C[C@@H](F)C6)ccc5c4C)n(CC4CC4)c23)CC1 [Example 452, 1-(4-(2-(6-((3R,5R)-3-amino-5-fluoropiperidine-1-carbonyl)-3-methylpyrazolo[1,5-a]pyridin-2-yl)-1-(cyclopropylmethyl)-1H-indol-7-yl)piperidin-1-yl)ethan-1-one] | 0.03
COCC(=O)N1CCC(c2cccc3cc(-c4nn5cc(C(=O)N6CC7CCC6[C@@H]7N)ccc5c4C)n(CC4CC4)c23)CC1 (stereo partly drawn) [Example 453, 1-(4-(2-(6-((7R)-7-amino-2-azabicyclo[2.2.1]heptane-2-carbonyl)-3-methylpyrazolo[1,5-a]pyridin-2-yl)-1-(cyclopropylmethyl)-1H-indol-7-yl)piperidin-1-yl)-2-methoxyethan-1-one] | 0.01
CO[C@@H](C)C(=O)N1CCC(c2cccc3cc(-c4nn5cc(C(=O)N6CCC[C@@H](N)C6)ccc5c4C)n(CC4CC4)c23)CC1 [Example 454, (S)-1-(4-(2-(6-((R)-3-aminopiperidine-1-carbonyl)-3-methylpyrazolo[1,5-a]pyridin-2-yl)-1-(cyclopropylmethyl)-1H-indol-7-yl)piperidin-1-yl)-2-methoxypropan-1-one] | 0.55
COCC(=O)N1CCC(c2cccc3cc(-c4nn5cc(C(=O)N6CCC[C@@H](N)C6)ccc5c4C)n(CC4CC4)c23)CC1 [Example 455, (R)-1-(4-(2-(6-(3-aminopiperidine-1-carbonyl)-3-methylpyrazolo[1,5-a]pyridin-2-yl)-1-(cyclopropylmethyl)-1H-indol-7-yl)piperidin-1-yl)-2-methoxyethan-1-one] | 0.27
CO[C@@H](C)C(=O)N1CCC(c2cccc3cc(-c4nn5cc(C(=O)N6C[C@H](N)C[C@@H](F)C6)ccc5c4C)n(CC4CC4)c23)CC1 [Example 459, (S)-1-(4-(2-(6-((3R,5R)-3-amino-5-fluoropiperidine-1-carbonyl)-3-methylpyrazolo[1,5-a]pyridin-2-yl)-1-(cyclopropylmethyl)-1H-indol-7-yl)piperidin-1-yl)-2-methoxypropan-1-one] | 0.14
CO[C@H](C)C(=O)N1CCC(c2cccc3cc(-c4nn5cc(C(=O)N6CCC[C@@H](N)C6)ccc5c4C)n(CC4CC4)c23)CC1 [Example 460, (R)-1-(4-(2-(6-((R)-3-aminopiperidine-1-carbonyl)-3-methylpyrazolo[1,5-a]pyridin-2-yl)-1-(cyclopropylmethyl)-1H-indol-7-yl)piperidin-1-yl)-2-methoxypropan-1-one] | 0.07
CO[C@H](C)C(=O)N1CCC(c2cccc3cc(-c4nn5cc(C(=O)N6C[C@H](N)C[C@@H](F)C6)ccc5c4C)n(CC4CC4)c23)CC1 [Example 461, (R)-1-(4-(2-(6-((3R,5R)-3-amino-5-fluoropiperidine-1-carbonyl)-3-methylpyrazolo[1,5-a]pyridin-2-yl)-1-(cyclopropylmethyl)-1H-indol-7-yl)piperidin-1-yl)-2-methoxypropan-1-one] | 0.08
Cc1c(-c2cc3cccc(C4CCN(C(=O)c5cccs5)CC4)c3n2CC2CC2)nn2cc(C(=O)N3CCC[C@@H](N)C3)ccc12 [Example 464, (R)-(3-aminopiperidin-1-yl)(2-(1-(cyclopropylmethyl)-7-(1-(thiophene-2-carbonyl)piperidin-4-yl)-1H-indol-2-yl)-3-methylpyrazolo[1,5-a]pyridin-6-yl)methanone] | 0.18
COC(=O)N1CCC(c2cccc3cc(-c4nn5cc(C(=O)N6CCC[C@@H](N)C6)ccc5c4C)n(CC4CC4)c23)CC1 [Example 468, Methyl (R)-4-(2-(6-(3-aminopiperidine-1-carbonyl)-3-methylpyrazolo[1,5-a]pyridin-2-yl)-1-(cyclopropylmethyl)-1H-indol-7-yl)piperidine-1-carboxylate] | 0.1
COC(=O)N1CCC(c2cccc3cc(-c4nn5cc(C(=O)N6C[C@H](N)C[C@@H](F)C6)ccc5c4C)n(CC4CC4)c23)CC1 [Example 469, Methyl 4-(2-(6-((3R,5R)-3-amino-5-fluoropiperidine-1-carbonyl)-3-methylpyrazolo[1,5-a]pyridin-2-yl)-1-(cyclopropylmethyl)-1H-indol-7-yl)piperidine-1-carboxylate] | 0.18
COC(=O)N1CCC(c2cccc3cc(-c4nn5cc(C(=O)N6CC7CCC6[C@@H]7N)ccc5c4C)n(CC4CC4)c23)CC1 (stereo partly drawn) [Example 470, Methyl 4-(2-(6-((7R)-7-amino-2-azabicyclo[2.2.1]heptane-2-carbonyl)-3-methylpyrazolo[1,5-a]pyridin-2-yl)-1-(cyclopropylmethyl)-1H-indol-7-yl)piperidine-1-carboxylate] | 0.01
Cc1c(-c2cc3cccc(C4CCN(C(=O)[C@@H](C)O)CC4)c3n2CC2CC2)nn2cc(C(=O)N3CCC[C@@H](N)C3)ccc12 [Example 471, (R)-1-(4-(2-(6-((R)-3-aminopiperidine-1-carbonyl)-3-methylpyrazolo[1,5-a]pyridin-2-yl)-1-(cyclopropylmethyl)-1H-indol-7-yl)piperidin-1-yl)-2-hydroxypropan-1-one] | 0.09
Cc1c(-c2cc3cccc(C4CCN(C(=O)[C@@H](C)O)CC4)c3n2CC2CC2)nn2cc(C(=O)N3C[C@H](N)C[C@@H](F)C3)ccc12 [Example 472, (R)-1-(4-(2-(6-((3R,5R)-3-amino-5-fluoropiperidine-1-carbonyl)-3-methylpyrazolo[1,5-a]pyridin-2-yl)-1-(cyclopropylmethyl)-1H-indol-7-yl)piperidin-1-yl)-2-hydroxypropan-1-one] | 0.06
